Results: PMC12024912, “Druggability Studies of Benzene Sulfonamide Substituted Diarylamide (E3) as a Novel Diuretic” (Biomedicines, 2025)

Legend:
[1] = set-up: method as in PMID 35458649; conditions: 25a, comparison value; cited from earlier work
UT-B [2] = molecular target: T1, UT-B (Rattus norvegicus, UniProt P97689); assay: Erythrocyte lysis assay for UT-B inhibition, rat erythrocytes; type: cell-based; conditions: erythrocyte lysis model; rat; n = 3, means; read-out: IC50 (μM) Rat
T1 construct: endogenous in cells; host or cells: erythrocytes from male SD rats
T1 sequence (P97689 1-384): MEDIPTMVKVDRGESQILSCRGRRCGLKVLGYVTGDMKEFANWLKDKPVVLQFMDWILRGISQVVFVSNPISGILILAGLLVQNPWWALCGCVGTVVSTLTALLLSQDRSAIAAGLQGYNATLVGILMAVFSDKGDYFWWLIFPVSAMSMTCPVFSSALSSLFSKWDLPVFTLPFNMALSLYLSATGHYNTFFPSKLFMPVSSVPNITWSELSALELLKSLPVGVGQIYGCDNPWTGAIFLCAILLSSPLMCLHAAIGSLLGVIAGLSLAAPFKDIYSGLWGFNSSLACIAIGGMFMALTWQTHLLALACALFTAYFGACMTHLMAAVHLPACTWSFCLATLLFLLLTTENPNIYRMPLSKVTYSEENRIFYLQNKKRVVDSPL
Procedure: (§1) The erythrocyte lysis assay was modified from a method described previously. Erythrocytes obtained from veins were diluted to a hematocrit value of 2% in hyperosmolar PBS containing 1.25 mol/L urea and 5 mmol/L glucose and incubated at r.t. for 2 h. Then, 99 μL erythrocyte suspension from a reservoir was added to each well of a 96-well round-bottom microplate, then 1 μL of the testing compound (500, 125, 31.25, 7.81, 1.95, 0.488, 0.122, 0.031, 0.0076 μmol/L dissolved in DMSO) was added to erythrocyte suspension and shook it up with microoscillator for 1 min. Following 5 min incubation, 20 μL erythrocyte suspension was transferred into 96-well black microplates preloaded with 180 μL isotonic PBS (10 mM, urea-free). Erythrocyte lysis was monitored at 710 nm optical density (OD710) for 6 min, with lysis rates calculated using control values from the same plate as Equation (1):Lysis (%) = 100 × (Aneg − Atest)/(Aneg − Apos)(1) where Atest is the absorbance value from the test well, Aneg is from a negative no-lysis control well, and Apos is from a positive full-lysis control.

UT-B [3] = molecular target: T2, UT-B (Mus musculus, UniProt Q8VHL0); assay: Erythrocyte lysis assay for UT-B inhibition, mouse erythrocytes; type: cell-based; conditions: erythrocyte lysis model; mouse; n = 3, means; read-out: IC50 (μM) Mouse
T2 construct: endogenous in cells; host or cells: erythrocytes from wild-type C57BL/6 mice
T2 sequence (Q8VHL0 1-384): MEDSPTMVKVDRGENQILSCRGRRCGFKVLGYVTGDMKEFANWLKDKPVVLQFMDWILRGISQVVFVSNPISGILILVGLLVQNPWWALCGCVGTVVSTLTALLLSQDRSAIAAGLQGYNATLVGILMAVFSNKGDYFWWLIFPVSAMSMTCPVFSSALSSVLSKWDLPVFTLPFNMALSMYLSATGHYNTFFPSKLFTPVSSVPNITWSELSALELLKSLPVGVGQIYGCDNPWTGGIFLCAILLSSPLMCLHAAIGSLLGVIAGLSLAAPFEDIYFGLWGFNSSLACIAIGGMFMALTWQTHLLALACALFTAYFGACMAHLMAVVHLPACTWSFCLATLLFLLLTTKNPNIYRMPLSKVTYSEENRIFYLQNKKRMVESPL
Procedure: as §1

mice = assay: Mouse sperm malformation assay; conditions: mice; day 35; E3 2000 mg/kg/day oral for 5 days; CP 50 mg/kg i.p.; vs control
Procedure: Male mice were randomly divided into three groups: control group (0.5% CMC-Na), E3 2000 mg/kg group, and positive group (50 mg/kg cyclophosphamide (CP), administered via intraperitoneal injection). E3 and the control group were administered once daily by intragastric gavage. All mice received treatment for 5 consecutive days. After the initial dosing period, […], the mice were euthanized, and evaluation of sperm parameters was performed as follows:
Caudal epididymides were dissected into fragments in physiological saline and incubated (37 °C, 5% CO2, 10 min). Spermatozoa were isolated through nylon mesh filtration. Semen parameters were quantified using computer-assisted semen analysis (CASA). Eosin-stained smears (20 μL sperm suspension) were analyzed to examine sperm morphology. […] Sperm shape abnormalities, such as banana, headless, without a hook, amorphous, double-tailed, and fat head, were identified and counted. In addition, the testis was reserved for morphological analysis. The spermatogenesis was graded from 1 to 10 using the Johnsen score.

[4] = system: rat hyponatremia model caused by SIADH; assay: Rat hyponatremia model caused by SIADH (dDAVP); type: in vivo
Procedure: The protocol for dDAVP-induced hyponatremia was adapted from a previous study, with tolvaptan chosen as the positive control. Preliminary experiments determined the dose of dDAVP (0.25 ng/h). Under isoflurane anesthesia, a 0.5 μg/mL dDAVP solution was injected subcutaneously using an osmotic minipump (ALZET 2002, Cupertino, CA, USA; 200 μL, low rate of 0.5 μL/h for […]). Rats were housed individually in metabolic cages to collect urine. Before using the pump, they were given 62.5 mL/d 1.0 kcal/mL of liquid food. After pump implantation, the rats received 40 mL of 2.1 kcal/mL of liquid feed daily. The rats were divided into five groups: control group (sham operation), model group (0.5% poloxamer, solvent), 4 mg/kg tolvaptan group, 4 mg/kg E3 group, and 20 mg/kg E3 group. E3 was administered orally every 8 h, while tolvaptan was given intragastrically once daily. At the end of the experiment, the rats were sacrificed.

[5] = SIADH rats, E3 4 or 20 mg/kg every 8 h, tolvaptan 4 mg/kg once daily, vs model rats

Row | SMILES | IC50 (UT-B [2]) [µM] | IC50 (UT-B [3]) [µM] | also measured
1 | CC(=O)Nc1ccc(NC(=O)c2ccc(C(C)=O)o2)cc1 [Compound 25a, N-(4-acetamidophenyl)-5-acetylfuran-2-carboxamide] |  |  | half-life [1]: 2.86 h; tmax time [1]: 15 min
2 | CCN1CCN(c2ccc(NC(=O)c3ccc(C(C)=O)o3)cc2)CC1 [Compound E1] | 0.32 | 0.86 | 
3 | CC(=O)c1ccc(C(=O)Nc2ccc(C(=O)NCCN(C)C)cc2)o1 [Compound E2] | 0.4 | 2.41 | 
4 | CC(=O)c1ccc(C(=O)Nc2ccccc2NS(=O)(=O)c2ccccc2)o1 [Compound E4] | 6.46 | > 10 | 
5 | CC(=O)c1ccc(C(=O)Nc2ccc(NS(=O)(=O)c3ccccc3)cc2)o1 [Compound E5] | 0.06 | 0.23 | 
6 | CC(=O)c1ccc(C(=O)Nc2ccc(NS(=O)(=O)c3ccccc3)c(O)c2)o1 [Compound E6] | 0.05 | 0.18 | 
7 | CC(=O)c1ccc(C(=O)Nc2ccc(S(=O)(=O)Nc3ccccc3)cc2)o1 [Compound E7] | 0.09 | 0.23 | 
8 | CC(=O)c1ccc(C(=O)Nc2ccc(S(=O)(=O)Nc3ccc(OCCN4CCOCC4)cc3)cc2)o1 [Compound E8] | 0.77 | 2.55 | 
9 | CC(=O)c1ccc(C(=O)Nc2ccc(S(=O)(=O)Nc3ccc(OCCCN4CCOCC4)cc3)cc2)o1 [Compound E9] | 1.75 | 4.07 | 
10 | O=P1(N(CCCl)CCCl)NCCCO1 (stereo not drawn) [cyclophosphamide (CP), cyclophosphamide, reference compound] |  |  | testicular and epididymal indices, sperm motility, abnormal morphology, sperm counts, Johnsen score (mice): caused abnormalities
11 | Cc1ccccc1C(=O)Nc1ccc(C(=O)N2CCCC(O)c3cc(Cl)ccc32)c(C)c1 (stereo not drawn) [tolvaptan, reference compound] |  |  | hyponatremia in SIADH rats ([4]; E3 4 or 20 mg/kg orally every 8 h, tolvaptan 4 mg/kg once daily, vs model): significantly alleviated; serum osmolality [4, 5]: significantly increased; serum sodium concentration [4, 5]: significantly increased; blood urea levels ([4]; SIADH rats, between experimental groups before and after treatment): no significant difference; H&E staining of kidney and liver ([4]; SIADH rats, except dilatation of collecting ducts): normal tissue structures
